Laboratory results: ChEMBL document CHEMBL1145622, “2-Aminomethyl piperidines as novel urotensin-II receptor antagonists” (Bioorg Med Chem Lett, 2008)

How the values were obtained:
[1] = target: T1, Urotensin-2 receptor (Homo sapiens, UniProt Q9UKP6); assay: Displacement of [125I]human urotensin 2 from human recombinant urotensin 2 receptor expressed in HEK293 cells; type: cell-based
T1 sequence (Q9UKP6 whole entry): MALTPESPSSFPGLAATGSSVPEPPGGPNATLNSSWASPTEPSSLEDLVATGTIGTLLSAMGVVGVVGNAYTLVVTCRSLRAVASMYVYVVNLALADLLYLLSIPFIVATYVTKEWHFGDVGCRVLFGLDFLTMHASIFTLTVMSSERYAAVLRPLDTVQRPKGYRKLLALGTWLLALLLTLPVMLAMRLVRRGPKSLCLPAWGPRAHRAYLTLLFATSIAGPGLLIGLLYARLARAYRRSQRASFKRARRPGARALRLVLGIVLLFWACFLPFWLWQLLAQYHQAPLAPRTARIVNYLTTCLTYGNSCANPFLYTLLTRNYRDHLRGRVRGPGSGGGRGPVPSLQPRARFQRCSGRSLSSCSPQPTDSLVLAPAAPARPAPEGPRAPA

[2] = target: T1, Urotensin-2 receptor; assay: Inhibition of human recombinant urotensin 2 receptor-mediated calcium mobilization expressed in HEK293 cells by FLIPR assay; type: functional, cell-based
[3] = target: T2, Urotensin-2 receptor (Rattus norvegicus, UniProt P49684); assay: Displacement of [125I]human urotensin 2 from rat urotensin 2 receptor
T2 sequence (P49684 whole entry): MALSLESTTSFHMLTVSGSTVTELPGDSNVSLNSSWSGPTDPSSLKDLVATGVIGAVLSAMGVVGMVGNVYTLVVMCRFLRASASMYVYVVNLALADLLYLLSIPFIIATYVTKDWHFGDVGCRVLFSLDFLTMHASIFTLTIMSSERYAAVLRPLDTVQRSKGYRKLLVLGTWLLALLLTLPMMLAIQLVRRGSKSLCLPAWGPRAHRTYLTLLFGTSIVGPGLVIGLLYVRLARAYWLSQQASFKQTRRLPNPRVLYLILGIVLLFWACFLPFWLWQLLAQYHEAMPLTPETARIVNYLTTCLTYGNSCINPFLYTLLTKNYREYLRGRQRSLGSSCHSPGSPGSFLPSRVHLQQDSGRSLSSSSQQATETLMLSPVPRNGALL

[4] = Blockade of human urotensin 2-induced contraction in cat isolated femoral artery; type: functional, Felis catus
[5] = target: T1, Urotensin-2 receptor; assay: Antagonist activity at human urotensin 2 receptor; type: functional; settings: read-out: pA2 (converted)
[6] = Displacement of [125I]human urotensin 2 from cat urotensin 2 receptor; design: species or system Felis catus
[7] = test system: Aorta; assay: Blockade of human urotensin 2-induced contraction in rat isolated aorta; type: functional
[8] = Volume of distribution at steady state in rat at 1.2 mg/kg, iv and 2.2 mg/kg, po; type: ADME, organism-based; settings: in vivo, read-out: Vdss
[9] = Bioavailability in rat at 2.2 mg/kg, po; type: ADME, organism-based; settings: in vivo
[10] = Clearance in rat at 1.2 mg/kg, iv and 2.2 mg/kg, po; type: ADME, organism-based; settings: in vivo
[11] = Half life in rat at 1.2 mg/kg, iv and 2.2 mg/kg, po; type: ADME, organism-based; settings: in vivo
[12] = target: Cytochrome P450 3A4 (Homo sapiens, UniProt P08684); assay: Inhibition of CYP3A4; type: ADME
[13] = target: Cytochrome P450 2D6 (Homo sapiens, UniProt P10635); assay: Inhibition of CYP2D6; type: ADME
Sequence of Cytochrome P450 2D6 (P10635 whole entry): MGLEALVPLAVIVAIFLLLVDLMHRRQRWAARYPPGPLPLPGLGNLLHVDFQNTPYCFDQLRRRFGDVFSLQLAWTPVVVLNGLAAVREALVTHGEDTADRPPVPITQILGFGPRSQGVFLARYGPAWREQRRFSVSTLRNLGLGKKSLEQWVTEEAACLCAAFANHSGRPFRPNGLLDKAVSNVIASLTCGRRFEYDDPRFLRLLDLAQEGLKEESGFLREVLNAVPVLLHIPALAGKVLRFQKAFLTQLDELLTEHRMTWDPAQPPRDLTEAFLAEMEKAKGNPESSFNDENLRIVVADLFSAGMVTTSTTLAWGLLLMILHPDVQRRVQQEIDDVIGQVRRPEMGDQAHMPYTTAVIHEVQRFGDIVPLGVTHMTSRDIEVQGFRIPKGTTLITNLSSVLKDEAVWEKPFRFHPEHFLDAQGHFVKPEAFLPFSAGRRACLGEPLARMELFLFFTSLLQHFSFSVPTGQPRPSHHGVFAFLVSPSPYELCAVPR

Sequence of Cytochrome P450 3A4 (P08684 whole entry): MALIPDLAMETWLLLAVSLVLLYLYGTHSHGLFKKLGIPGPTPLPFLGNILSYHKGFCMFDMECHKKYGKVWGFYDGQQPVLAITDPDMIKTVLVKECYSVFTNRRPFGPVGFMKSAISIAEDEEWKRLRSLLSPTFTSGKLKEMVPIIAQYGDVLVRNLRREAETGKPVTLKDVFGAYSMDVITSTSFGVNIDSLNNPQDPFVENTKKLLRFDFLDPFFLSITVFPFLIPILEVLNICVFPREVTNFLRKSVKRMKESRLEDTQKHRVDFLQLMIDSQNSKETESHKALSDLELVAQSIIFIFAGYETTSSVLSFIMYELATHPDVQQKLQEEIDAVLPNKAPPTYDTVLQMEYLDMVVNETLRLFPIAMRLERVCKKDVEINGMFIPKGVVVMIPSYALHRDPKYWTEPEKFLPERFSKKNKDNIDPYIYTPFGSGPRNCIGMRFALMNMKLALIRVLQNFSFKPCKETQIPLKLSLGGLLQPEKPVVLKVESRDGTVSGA

SMILES: CN(CC(=O)N1CCC[C@H](c2ccccc2)[C@@H]1CN1CCCC1)Cc1ccc(Cl)c(Cl)c1
- Ki [1]: 3980 nM

SMILES: COc1cccc(N(C)CC(=O)N2CCC[C@H](c3ccccc3)[C@@H]2CN2CCCC2)c1
- Ki [1]: 794 nM

SMILES: Cc1cccc(N(C)CC(=O)N2CCC[C@H](c3ccccc3)[C@@H]2CN2CCCC2)c1
- Ki [1]: 398 nM

SMILES: CN(CC(=O)N1CCC[C@@H](c2ccccc2)[C@H]1CN1CCCC1)c1ccc(Cl)c(Cl)c1
- Ki [1]: 1580 nM

SMILES: CN(CC(=O)N1CCCCC1CN1CCCC1)c1ccc(Cl)c(Cl)c1 (stereo unspecified)
- IC50 [2]: 631 nM
- Ki [1]: 398 nM

SMILES: O=C(Cc1csc2ccc(Cl)cc12)N1CCCCC1CN1CCCC1 (stereo unspecified)
- Ki [1]: 501 nM

SMILES: O=C(Cc1csc2ccc(Cl)cc12)N1CCCCC1CN1CCCCC1 (stereo unspecified)
- Ki [1]: 7940 nM

SMILES: O=C(Cc1c[nH]c2ccc(Br)cc12)N1CCC[C@H](c2ccccc2)[C@@H]1CN1CCCC1
- Ki [1]: 631 nM

SMILES: Cc1ccc2scc(CC(=O)N3CCC[C@H](c4ccccc4)[C@@H]3CN3CCCC3)c2c1
- Ki [1]: 15.8 nM

SMILES: CC(=O)N(CC(=O)N1CCC[C@H](c2ccccc2)[C@@H]1CN1CCCC1)c1ccc(Cl)c(Cl)c1
- Ki [1]: 1580 nM

SMILES: CCN(CC(=O)N1CCC[C@H](c2ccccc2)[C@@H]1CN1CCCC1)c1ccc(Cl)c(Cl)c1
- Ki [1]: 31.6 nM

SMILES: CN(CC(=O)N1CCC[C@H](c2ccccc2)[C@@H]1CN1CCCC1)c1cccc(Cl)c1
- Ki [1]: 79.4 nM

SMILES: CS(=O)(=O)N(CC(=O)N1CCC[C@H](c2ccccc2)[C@@H]1CN1CCCC1)c1ccc(Cl)c(Cl)c1
- Ki [1]: 79.4 nM

SMILES: O=C(CN(CC1CC1)c1ccc(Cl)c(Cl)c1)N1CCC[C@H](c2ccccc2)[C@@H]1CN1CCCC1
- Ki [1]: 50.1 nM

SMILES: Cc1ccc(N(C)CC(=O)N2CCC[C@H](c3ccccc3)[C@@H]2CN2CCCC2)cc1C
- Ki [1]: 200 nM

SMILES: CN(CC(=O)N1CCC[C@H](c2ccccc2)[C@@H]1CN1CCCC1)c1cccc(C(F)(F)F)c1
- Ki [1]: 100 nM

SMILES: CN(CC(=O)N1CCC[C@H](c2ccccc2)[C@@H]1CN1CCCC1)c1ccc(Cl)cc1
- Ki [1]: 501 nM

SMILES: O=C(Cc1ccc2ccccc2c1)N1CCC[C@H](c2ccccc2)[C@@H]1CN1CCCC1
- Ki [1]: 7940 nM

SMILES: O=C(CNc1ccc(Cl)c(Cl)c1)N1CCC[C@H](c2ccccc2)[C@@H]1CN1CCCC1
- Ki [1]: 63.1 nM

SMILES: O=C(Cc1csc2ccc(Cl)cc12)N1CCC[C@@H](c2ccccc2)[C@H]1CN1CCCC1
- Ki [1]: 1000 nM

SMILES: O=C(Cc1csc2ccc(Cl)cc12)N1CCOCC1CN1CCCC1 (stereo unspecified)
- Ki [1]: 794 nM

SMILES: O=C(Cc1csc2ccccc12)N1CCC[C@H](c2ccccc2)[C@@H]1CN1CCCC1
- Ki [1]: 251 nM

SMILES: O=C(Cc1csc2ccc(Cl)cc12)N1CCCCCC1CN1CCCC1 (stereo unspecified)
- Ki [1]: 2000 nM

SMILES: CN1CCN(CC2CCCCN2C(=O)Cc2csc3ccc(Cl)cc23)CC1 (stereo unspecified)
- Ki [1]: > 7940 nM

SMILES: O=C(c1cccc2ccccc12)N1CCC[C@H](c2ccccc2)[C@@H]1CN1CCCC1
- Ki [1]: > 7940 nM

SMILES: CCN(CC)CC1CCCCN1C(=O)Cc1csc2ccc(Cl)cc12 (stereo unspecified)
- Ki [1]: > 7940 nM

SMILES: O=C(Cc1ccsc1)N1CCC[C@H](c2ccccc2)[C@@H]1CN1CCCC1
- Ki [1]: > 7940 nM

SMILES: O=C(Cc1cccc2ccccc12)N1CCC[C@H](c2ccccc2)[C@@H]1CN1CCCC1
- Ki [1]: 79.4 nM

SMILES: O=C(Cc1ccc(Cl)c(Cl)c1)N1CCC[C@H](c2ccccc2)[C@@H]1CN1CCCC1
- Ki [1]: 2510 nM

SMILES: O=C(Cc1csc2ccc(Cl)cc12)N1CCCC1CN1CCCC1 (stereo unspecified)
- Ki [1]: > 7940 nM

SMILES: O=C(Cc1csc2ccc(Br)cc12)N1CCC[C@H](c2ccccc2)[C@@H]1CN1CCCC1
- Ki [1]: 7.94 nM

SMILES: O=C(Cc1csc2ccc(Cl)cc12)N1CCC[C@H](c2ccccc2)[C@@H]1CN1CCCC1
- Ki [3]: 10 nM
- pKb [4]: 7.2
- Kb [5]: 10 nM
- Log Ki [6]: -8
- Ki [1]: 3.98 nM
- pKb [7]: 7.7

SMILES: CN(CC(=O)N1CCC[C@H](c2ccccc2)[C@@H]1CN1CCCC1)c1ccccc1Cl
- Ki [1]: 794 nM

SMILES: Cc1ccc2scc(CCC(=O)N3CCC[C@H](c4ccccc4)[C@@H]3CN3CCCC3)c2c1
- Ki [1]: 3160 nM

SMILES: CN(CC(=O)N1CCC[C@H](c2ccccc2)[C@@H]1CN1CCCC1)c1ccc2ccccc2c1
- Ki [1]: 158 nM

SMILES: CN(CC(=O)N1CCC[C@H](c2ccccc2)[C@@H]1CN1CCCC1)c1ccccc1
- Ki [1]: 3160 nM

SMILES: O=C(Cc1csc2ccc(Cl)cc12)N1CCCCC1CN1CCOCC1 (stereo unspecified)
- Ki [1]: 1260 nM

SMILES: CCCO[C@H]1CCCN(C(=O)Cc2csc3ccc(Cl)cc23)[C@H]1CN1CCCC1 (relative stereo)
- Ki [1]: 31.6 nM

SMILES: O=C(Cc1csc2ccc(Cl)cc12)N1C[C@H](c2ccccc2)CC[C@H]1CN1CCCC1 (relative stereo)
- Ki [1]: 31.6 nM

SMILES: O=C(Cc1csc2ccc(Cl)cc12)N1CC[C@H](c2ccccc2)C[C@@H]1CN1CCCC1 (relative stereo)
- Ki [1]: 200 nM

SMILES: O=C(Cc1csc2ccc(Cl)cc12)N1CCC[C@H](C2CCCCC2)[C@@H]1CN1CCCC1 (relative stereo)
- Ki [1]: 25.1 nM

SMILES: C[C@H]1CCCN(C(=O)Cc2csc3ccc(Cl)cc23)[C@H]1CN1CCCC1 (relative stereo)
- Ki [1]: 200 nM

SMILES: O=C(Cc1csc2ccc(Cl)cc12)N1CCC[C@H](c2ccccc2)[C@@H]1CN1CCCC1 (relative stereo)
- Ki [1]: 7.94 nM

SMILES: CN(CC(=O)N1CCC[C@H](c2ccccc2)[C@@H]1CN1CCCC1)c1ccc(Cl)c(Cl)c1 (stereo in doubt; 10b)
- Vd [8]: 23 L/kg
- bioavailability [9]: 0%
- clearance [10]: 97 mL/min/kg
- half-life [11]: 3.8 h
- Ki [1]: 15.8 nM
- IC50 [12]: 1400 nM
- IC50 [13]: 800 nM

SMILES: CN(CC(=O)N1CCC[C@H](c2ccccc2)[C@@H]1CN1CCCC1)c1ccc(Cl)c(Cl)c1 (stereo in doubt; 11a)
- Ki [3]: 6.31 nM
- pKb [4]: 7.2
- Log Ki [6]: -8.1
- Ki [1]: 6.31 nM
- pKb [7]: 7.9
